{
  "source": "paper PMC8864869",
  "about": "“A short peptide derived from pigment epithelial-derived factor exhibits an angioinhibitory effect” (BMC Ophthalmology, 2022)",
  "key": {"RPMI8226 cells [1]": {"test_system": "RPMI8226 cells", "assay_type": "cell-based, human", "details": "for MTT value, VEGF-induced RPMI8226 cell proliferation: 10 ng/ml VEGF + 25 μM peptide, serum-free medium, solvent-treated/untreated cells set as 100%, three independent experiments", "procedure": "Human multiple myeloma cells, RPMI8226 were purchased from Bioresource Collection and Research Center (Hsinchu, Taiwan). Cells were cultivated in RPMI1640 medium supplemented with 10% FBS, 50 μg/ml penicillin, 50 μg/ml streptomycin, and 2 mM L-glutamine at 37 °C in a 5% CO2 atmosphere. Cell viability was determined by an MTT assay. […] MTT stock solution added to medium alone was included as a negative control. Aliquots (450 μl) from each sample were transferred to a new well of a 48-well culture plate, 100 μl DMSO added with thorough mixing, and allowed to react at 37 °C for 20 min before reading the absorbance at 570 nm."}, "[2]": {"details": "cited from earlier work; for anti-angiogenic and antitumor activities of human PEDF: previous studies", "text": "Pigment epithelial-derived factor (PEDF) was initially identified in the culture supernatant of human fetal retinal pigment epithelial cells, with the ability to promote neuronal differentiation of retinoblastoma Y79 cells. […] Presently, full-length PEDF is considered to be less suitable as an anti-angiogenic agent than PEDF-derived active fragments because of several issues, including antigenicity, s ... || Identification of angioinhibitory peptides derived from PEDF may be a promising strategy for improving the treatment of angiogenesis-related diseases. […] Here, we found for the first time that the 7-mer peptide (D64-S70), representing a minimal region within PEDF, reproduced the anti-VEGF effect, comparab ..."}, "RPMI8226 cells [3]": {"test_system": "RPMI8226 cells", "experiment": "Annexin V-FITC/PI double-staining apoptosis assay in RPMI8226 cells", "assay_type": "cell-based, human", "procedure": "(§1) Cell apoptosis was examined using a TACS annexin V-FITC kit according to the manufacturer’s instructions for in situ staining. The cell numbers were monitored by counterstaining with Hoechst 33342. Afterward, apoptosis was examined and photographed by a Zeiss epifluorescence microscope (× 100, 10 fields/sample). Images were recorded on Zeiss software.\nFig. 2 The 34-mer and 7-mer induce apoptosis of RPMI8226 cells. a Fluorescence microscopy of annexin V-FITC/PI double staining. Treatment of RPMI8226 cells was as described in Fig. 1. Apoptosis was determined by annexin V-FITC staining (green dots) and double stained with propidium iodide (red dots). A representative of three independent experiments is shown. b The percentage of apoptotic cells was quantified by dividing the number of annexin V-positive cells by the total number of cells counted by phase-contrast light microscopy. Control peptide indicates cells were treated with the 5-mer. Histograms show means ± SD. ^aP < 0.005 versus peptide solvent-treated cells. ^bP < 0.0002 versus VEGF-treated cells. ^cP < 0.001 versus 34-mer-treated cells\nFig. 3 The 7-mer induces JNK signaling to trigger RPMI8226 cell apoptosis. 3 × 10^5 cells were serum starved for 24 h and then exposed to 10 ng/ml VEGF and 25 μM 7-mer for the indicated time periods. a Western blotting was performed to detect the active phosphorylated forms of JNK (p-JNK) and p38 MAPK (p-p38), shown in the upper panels. Antibodies were then stripped and the blots were re-incubated with anti-JNK and anti-p38 MAPK antibodies (lower panels), respectively, to detect the levels of total JNK and p38 MAPK. b Densitometric analyses from three independent experiments are shown. c Cell were pretreated with 10 μM SP600125 or SB203580 for 10 min and then treated as described above for 24 h and apoptosis was quantified using the annexin V-FITC apoptosis detection kit. *P < 0.0001 versus 7-mer-treated cells"}, "HUVECs [4]": {"test_system": "HUVECs", "experiment": "Endothelial cell capillary-like tube formation assay", "assay_type": "cell-based, human", "details": "20 ng/ml VEGF, 10 μM 7-mer, matrigel, 0.5% FBS, 6 h", "procedure": "(§2) Cells were grown in Medium 200 with LSGS (supplement contains 1.9% fetal bovine serum, 3 ng/ml bFGF, 10 μg/ml heparin, 1 μg/ml hydrocortisone, and 10 ng/ml EGF). Culture plates were coated with 2% gelatin. Cells (passages 4–8) were cultured at 37 °C in a humidified atmosphere of 5% CO2. For peptide treatment, HUVECs were cultured in low serum (0.5% FBS) medium containing 20 ng/ml VEGF and 7-mer peptide (20 μM, unless otherwise specified).\nGrowth factor-reduced matrigel was pipetted into pre-chilled 24-well plates (150 μl matrigel per well) and polymerized for 45 min at 37 °C. HUVECs (4 × 10^4 per well) in low serum (0.5% FBS) medium were treated with 20 ng/ml VEGF and 7-mer (10 μM) in matrigel coated plates. After 6 h of incubation, tubular structures were photographed. Images were captured using a Cannon camera on a Zeiss inverted microscope with magnification × 40.\nThe experiment was repeated three times. Magnification is × 40. b The 7-mer induces HUVEC apoptosis in the presence of VEGF. Cell apoptosis was analyzed using the Annexin V-FITC Apoptosis Detection kit according to the in situ staining protocol after treatment for 16 h. Double staining with an annexin V-FITC and the fluorescent dye Hoechst 33342 was used to visualize the apoptotic cells (green) and nuclei (blue), respectively. […] The percentages of apoptotic cells were quantified. ^aP < 0.005 versus VEGF-treated cells"}, "HUVECs [5]": {"test_system": "HUVECs", "experiment": "Annexin V-FITC apoptosis assay in HUVECs", "assay_type": "cell-based, human", "details": "0.5% FBS, 16 h", "procedure": "as §2, §1\nThe experiment was repeated three times. Magnification is × 40. b The 7-mer induces HUVEC apoptosis in the presence of VEGF. Cell apoptosis was analyzed using the Annexin V-FITC Apoptosis Detection kit according to the in situ staining protocol after treatment for 16 h. Double staining with an annexin V-FITC and the fluorescent dye Hoechst 33342 was used to visualize the apoptotic cells (green) and nuclei (blue), respectively. A representative result of four independent experiments is shown. The percentages of apoptotic cells were quantified. ^aP < 0.005 versus VEGF-treated cells"}, "[6]": {"test_system": "p53, Bax, p21, cleaved caspase-3", "experiment": "Western blot of p53, Bax, p21 and cleaved caspase-3 in RPMI8226 cells", "assay_type": "cell-based, human", "details": "10 μM inhibitor pretreatment, then VEGF + 25 μM 7-mer", "text": "Cell lysis and SDS–PAGE were as described previously. Antibodies used in this study were for active p38 MAPK and active JNK (Promega, Madison, WI), p38 MAPK/SAPK2, JNK (Upstate Biotechnology, Lake Placid, NY), p53 (Chemicon, Temecula, CA), bax, p21, cleaved caspase-3 and β-actin (Abcam Ltd., Cambridge, UK). Proteins of interest were detected using the appropriate IgG-horseradish peroxidase-linked secondary antibody (Santa Cruz Biotechnology) and enhanced chemiluminescence reagent (Amersham, Arlington Heights, IL). X-ray films were scanned on a model GS-700 Imaging Densitometer (Bio-Rad, Hercules, CA) and analyzed with Labworks 4.0 software. For quantification, blots from at least three independent experiments were used.\nFig. 4 The 7-mer induces JNK signaling to trigger p53/bax/p21^Waf1 expression in RPMI8226 cells. a and b Cell treatments were as described in Fig. 3. Cell lysates were then prepared for western blot analysis of p53, Bax, and p21. Representative blots and densitometric analyses from three independent experiments are shown. ^*P < 0.001 versus 7-mer-treated cells"}},
  "note": "Where no end group is shown, it is not given here.",
  "data": [
    {"molecule": "7-mer D64 alanine substitution: 7-mer with single alanine substitution of D64 (ALYRVRS; ends and bridges not checked; UniProt P36955 64-70, looked up, variant D64A)", "values": [
      {"measurement": "MTT value, VEGF-induced RPMI8226 cell proliferation", "setting": "RPMI8226 cells [1]; 24 h, mean ± SD", "value": "69 ± 3.5", "unit": "%"}
    ]},
    {"molecule": "7-mer L65 alanine substitution: 7-mer with single alanine substitution of L65 (DAYRVRS; ends and bridges not checked; UniProt P36955 64-70, looked up, variant L65A)", "values": [
      {"measurement": "MTT value, VEGF-induced RPMI8226 cell proliferation", "setting": "RPMI8226 cells [1]; 24 h, mean ± SD", "value": "74 ± 0.9", "unit": "%"}
    ]},
    {"molecule": "18-mer: PEDF fragment Asn60-Asn77 of previous studies (NFGYDLYRVRSSTSPTTN; UniProt P36955 60-77, looked up, fragment)", "values": [
      {"measurement": "neurotrophic activity", "setting": "[2]", "value": "no neurotrophic activity"},
      {"measurement": "anti-angiogenic and antitumor activities of human PEDF", "setting": "[2]", "value": "preserve the anti-angiogenic and antitumor activities of human PEDF"}
    ]},
    {"molecule": "23-mer: PEDF fragment A55-N77 of previous studies (AAAVSNFGYDLYRVRSSTSPTTN; UniProt P36955 55-77, looked up, fragment)", "values": [
      {"measurement": "anti-angiogenic and antitumor activities of human PEDF", "setting": "[2]", "value": "devoid of PEDF activity"}
    ]},
    {"molecule": "34-mer: PEDF amino acid positions Asp44-Asn77, N-acetylated, C-amidated (Ac-DPFFKVPVNKLAAAVSNFGYDLYRVRSSTSPTTN-NH2; UniProt P36955 44-77, looked up, fragment) [reference compound]", "values": [
      {"measurement": "neurotrophic activity", "setting": "[2]", "value": "no neurotrophic activity"},
      {"measurement": "anti-angiogenic and antitumor activities of human PEDF", "setting": "[2]", "value": "preserve the anti-angiogenic and antitumor activities of human PEDF"},
      {"measurement": "cytotoxic effect on RPMI8226 cells in the absence of VEGF", "setting": "RPMI8226 cells [1]", "value": "neither peptide had a significant cytotoxic effect"},
      {"measurement": "MTT value, VEGF-induced RPMI8226 cell proliferation", "setting": "RPMI8226 cells [1]; 24 h, mean ± SD", "value": "84 ± 4.0", "unit": "%"},
      {"measurement": "dose dependence of cell viability of VEGF-treated RPMI8226 cells", "setting": "RPMI8226 cells [1]; 1, 5, 10 and 25 μM peptide with VEGF, MTT", "value": "cell viability decreased significantly with the 34-mer treatment at 10 and 25 μM, but not at 1 and 5 μM"},
      {"measurement": "apoptotic (annexin V+) RPMI8226 cells", "setting": "RPMI8226 cells [3]; 10 ng/ml VEGF + 25 μM peptide, 24 h, serum-free, early + late apoptosis, mean ± SD, three independent experiments", "value": "25.1 ± 2.2", "unit": "%"},
      {"measurement": "VEGF-stimulated tube-like network of HUVECs", "setting": "HUVECs [4]", "value": "marked decrease of the VEGF-stimulated tube-like network"},
      {"measurement": "apoptotic HUVECs (annexin V-FITC)", "setting": "HUVECs [5]; 20 ng/ml VEGF + peptide (20 μM), four independent experiments", "value": "20.1 ± 4.4", "unit": "%"}
    ]},
    {"molecule": "Oc1c2ccccc2c2c3c(cccc13)N=N2", "note": "[SP600125, reference compound]", "values": [
      {"measurement": "7-mer-induced increases of p53, bax, p21 and cleaved caspase-3 after inhibitor pretreatment", "setting": "[6]", "value": "significantly inhibited"},
      {"measurement": "7-mer-induced RPMI8226 cell apoptosis after inhibitor pretreatment", "setting": "RPMI8226 cells [3]; 10 μM inhibitor for 10 min, then 10 ng/ml VEGF + 25 μM 7-mer for 24 h, 7-mer alone 38.6 ± 2.1%", "value": "11.6 ± 1.5", "unit": "%"}
    ]},
    {"molecule": "D64N/L65V double mutant of the 7-mer: 7-mer with D64N/L65V double mutation (NVYRVRS; ends and bridges not checked; UniProt P36955 64-70, looked up, variant D64N L65V)", "values": [
      {"measurement": "MTT value, VEGF-induced RPMI8226 cell proliferation", "setting": "RPMI8226 cells [1]; 24 h, mean ± SD", "value": "117 ± 4.1", "unit": "%"}
    ]},
    {"molecule": "VEGF", "values": [
      {"measurement": "MTT value, RPMI8226 cells with VEGF alone", "setting": "RPMI8226 cells [1]; 10 ng/ml VEGF without peptide, 24 h, untreated cells set as 100%, mean ± SD", "value": "120 ± 3.9", "unit": "%"},
      {"measurement": "apoptotic (annexin V+) RPMI8226 cells with VEGF alone", "setting": "RPMI8226 cells [3]; 10 ng/ml VEGF, serum-free, serum deprivation alone 14.0 ± 1.7%", "value": "6.5 ± 1.1", "unit": "%"},
      {"measurement": "apoptotic HUVECs, VEGF-treated only", "setting": "HUVECs [5]; 20 ng/ml VEGF", "value": "6.3 ± 1.6", "unit": "%"}
    ]},
    {"molecule": "PEDF: a 50 kDa secreted glycoprotein (protein, UniProt P36955 20-418, looked up) Pigment epithelium-derived …: QNPASPPEEGSPDPDSTGALVEEEDPFFKVPVNKLAAAVSNFGYDLYRVRSSTSPTTNVLLSPLSVATALSALSLGAEQRTESIIHRALYYDLISSPDIHGTYKELLDTVTAPQKNLKSASRIVFEKKLRIKSSFVAPLEKSYGTRPRVLTGNPRLDLQEINNWVQAQMKGKLARSTKEIPDEISILLLGVAHFKGQWVTKFDSRKTSLEDFYLDEERTVRVPMMSDPKAVLRYGLDSDLSCKIAQLPLTGSMSIIFFLPLKVTQNLTLIEESLTSEFIHDIDRELKTVQAVLTVPKLKLSYEGEVTKSLQEMKLQSLFDSPDFSKITGKPIKLTQVEHRAGFEWNEDGAGTTPSPGLQPAHLTFPLDYHLNQPFIFVLRDTDTGALLFIGKILDPRGP", "values": [
      {"measurement": "MTT value, VEGF-induced RPMI8226 cell proliferation", "setting": "RPMI8226 cells [1]; 24 h, mean ± SD", "value": "93 ± 3.8", "unit": "%"}
    ]}
  ]
}
